Columns and labels:
T47D, TYS and TDG cells = test: MTS proliferation assay (4 days), T47D, TYS and TDG; assay type: cell-based, human
Protocol: FIG. 30 compares the ability of BHPI and test compounds to inhibit proliferation of T47D, TYS and TDG cells. T47D cells were in medium containing 10 FBS (which contains estrogen), TYS-4 and TDG-1 cells were in medium containing 10% cd-FBS (estrogen depleted). Cells are plated at 2,000 cells/well in 96 well plates. After 24 hours in medium containing FBS or charcoal-dextran treated FBS (depleted of endogenous estrogens), the indicated concentration of each compound (in DMSO at 1/1000th of the volume of medium) was added. After 2 days the medium was changed, and the compounds were added again. After 2 additional days (4 days total) MTS assays are used to evaluate cell proliferation. (n=6 ±S.E.M.).

[1] = system: TYD-Luc cells (T47DERαD538G-luciferase human breast cancer cells) tumors; test: Orthotopic TDG-Luc mouse xenograft, bioluminescent imaging; assay type: in vivo
Source text: FIG. 41. SERK-F6 eradicates mutant ERα primary and metastatic breast cancer. a-c, TYS-luc. orthotopic tumors were established in NSG ovariectomized mice (no E2 pellet, 60 days to establish) and dosed daily as indicated (n=5-6). b, representative examples of bioluminescence images of SERK-F6 treated mice (7 days). d,e, TDG-luc. orthotopic tumors were established in NSG ovariectomized mice (no E2 pellet, 120 days to establish) and dosed daily as indicated (n=4-5). e, Bioluminescence image of SERK-F6 treated mouse with TDG-luc. tumor burden after 7 days. f, MYS-luc. orthotopic tumors were established in NSG ovariectomized mice (no E2 pellet, 45 days to establish) and dosed daily as indicated (n=4-5). g, MDG-luc. orthotopic tumors were established in NSG ovariectomized mice (no E2 pellet, 45 days to establish) and dosed daily as indicated (n=4-5). h, Metastatic model with MDG-luc. cells injected into the tail-vein of NSG ovariectomized mice (no E2 pellet, 1.5 months to establish) and mice were dosed daily as indicated (n=4-5).
FIG. 4A illustrates how IC50's for cell death were determined. 4B tests the ability BHPI, (−)-105, and 01-15 to kill. […] Large orthotopic breast tumors of TYD-Luc cells (T47DERαD538G-luciferase human breast cancer cells) were allowed to form for 4 months in immune suppressed NSG mice. […]

SMILES	effectiveness in killing compared with BHPI (T47D, TYS and TDG cells)	efficacy on oral administration ([1]; 40 mg/kg oral gavage, 3 days)	effect on D538G mutant tumors (TDG cell line) ([1]; daily dosing)
O=C1Nc2c(C(F)(F)F)cccc2C1(c1ccc(O)cc1)c1ccc(OC(F)(F)F)cc1 (racemic) [(±)-105, 3-(4-hydroxyphenyl)-3-(4-(trifluoromethoxy)phenyl)-7-(trifluoromethyl)indolin-2-one]	more effective than BHPI		
O=C1Nc2c(C(F)(F)F)cccc2C1(c1ccc(O)cc1)c1ccc(OC(F)(F)F)cc1 (single isomer, unassigned; (-)) [(−)-105, 3-(4-hydroxyphenyl)-3-(4-(trifluoromethoxy)phenyl)-7-(trifluoromethyl)indolin-2-one]		effective when administered orally	destruction of D538G mutant tumors

— US11046647B2, “Activators of the unfolded protein response” (The Board of Trustees of the University of Illinois, priority 2018, dated 2021)
